Data published in patent publication US12433952B2, “Antibody-drug conjugates targeting folate receptor alpha and methods of use” (ZYMEWORKS BC INC., priority 2022, dated 2025).
Like-named read-outs stand apart in the source and are kept apart here.

Experiments:
Assay in all cases: In vitro cytotoxicity of camptothecin analogues (CellTiter-Glo)
Type in all cases: cell-based
Calu-3 (lung cancer) = conditions: Homo sapiens, Calu-3, 96 h, read-out: pIC50 Calu-3 (converted)
Experimental: (§1) Cytotoxicity of the camptothecin analogues was assessed in vitro as follows.
(§2) In vitro potency was assessed on multiple cancer cell lines: SK-BR-3 (breast cancer), SKOV-3 (ovarian cancer), Calu-3 (lung cancer), ZR-75-1 (breast cancer) and MDA-MB-468 (breast cancer). Serial dilutions of camptothecin analogues were prepared in RPMI 1640+10% FBS, and 20 μL of each dilution was added to 384-well plates. Cells cultured in log-phase growth were detached by brief incubation in 0.05% Trypsin and resuspended in respective culturing media at 20,000 cells/mL (with the exception of ZR-75 cells, which were resuspended at 10,000 cells/mL). 50 μL of cell suspension was then added to the plates containing test articles. Cells were incubated with test articles for 4 d at 37° C. (with the exception of ZR-75 cells, which were incubated for 5 d). Growth inhibition was assessed by CellTiter-Glo® (Promega Corporation, Madison, WI) and luminescence was measured on a plate reader. IC50 values were determined by GraphPad Prism (GraphPad Software, San Diego CA).

SK-BR-3 (breast cancer) = conditions: Homo sapiens, SK-BR-3, 96 h, read-out: pIC50 SKBR-3 (converted)
Experimental: as §1, §2

ZR-75-1 (breast cancer) = conditions: Homo sapiens, ZR-75-1, 120 h, read-out: pIC50 ZR-75 (converted)
Experimental: as §1, §2

SKOV-3 (ovarian cancer) = conditions: Homo sapiens, SK-OV-3, 96 h, read-out: pIC50 SKOV-3 (converted)
Experimental: as §1, §2

[1] = tested on: MDA-MB-468 (breast cancer); conditions: Homo sapiens, MDA-MB-468, 96 h, read-out: pIC50 MDA-MB-468 (converted)
Experimental: as §1, §2

Work on CC[C@@]1(O)C(=O)OCc2c1cc1n(c2=O)Cc2c-1nc1cc(F)c(C)cc1c2CNC(=O)NCCO [Compound 136, (S)-1-((4-ethyl-8-fluoro-4-hydroxy-9-methyl-3,14-dioxo-3,4,12,14-tetrahydro-1H-pyrano[3′,4′:6,7]indolizino[1,2-b]quinolin-11-yl)methyl)-3-(2-hydroxyethyl)urea] yielded an IC50 (Calu-3 (lung cancer); 4 d incubation) of 26.3 nM, an IC50 (SK-BR-3 (breast cancer); 4 d incubation) of 3.98 nM and an IC50 (ZR-75-1 (breast cancer); 5 d incubation) of 5.01 nM. It also gave an IC50 (SKOV-3 (ovarian cancer); 4 d incubation) of 51.3 nM and an IC50 ([1]; 4 d incubation) of 6.31 nM.

In the case of CC[C@@]1(O)C(=O)OCc2c1cc1n(c2=O)Cc2c-1nc1cc(F)c(OC)cc1c2CNC(=O)NC [Compound 133, (S)-1-((4-ethyl-8-fluoro-4-hydroxy-9-methoxy-3,14-dioxo-3,4,12,14-tetrahydro-1H-pyrano[3′,4′:6,7]indolizino[1,2-b]quinolin-11-yl)methyl)-3-methylurea], the IC50 (Calu-3 (lung cancer); 4 d incubation) is reported as 12 nM, the IC50 (SK-BR-3 (breast cancer); 4 d incubation) is reported as 6.76 nM and the IC50 (ZR-75-1 (breast cancer); 5 d incubation) is reported as 9.77 nM. For the same compound, the IC50 (SKOV-3 (ovarian cancer); 4 d incubation) was 74.1 nM and the IC50 ([1]; 4 d incubation) was 10.7 nM.

In the case of CC[C@@]1(O)C(=O)OCc2c1cc1n(c2=O)Cc2c-1nc1cc(F)c(C)cc1c2CN1CCN(c2ccc(N)cc2)CC1 [Compound 108, (S)-11-((4-(4-aminophenyl)piperazin-1-yl)methyl)-4-ethyl-8-fluoro-4-hydroxy-9-methyl-1,12-dihydro-14H-pyrano[3′,4′:6,7]indolizino[1,2-b]quinoline-3,14(4H)-dione], the IC50 (Calu-3 (lung cancer)) is reported as 40.7 nM, the IC50 (SK-BR-3 (breast cancer)) is reported as 29.5 nM and the IC50 (ZR-75-1 (breast cancer)) is reported as 18.6 nM. For the same compound, the IC50 (SKOV-3 (ovarian cancer)) was 55 nM and the IC50 [1] was 47.9 nM.

With CC[C@@]1(O)C(=O)OCc2c1cc1n(c2=O)Cc2c-1nc1cc(F)c(C)cc1c2CNS(=O)(=O)c1ccccc1 [Compound 125, (S)—N-((4-ethyl-8-fluoro-4-hydroxy-9-methyl-3,14-dioxo-3,4,12,14-tetrahydro-1H-pyrano[3′,4′:6,7]indolizino[1,2-b]quinolin-11-yl)methyl)benzenesulfonamide] the IC50 (Calu-3 (lung cancer)) was 2.82 nM, the IC50 (SK-BR-3 (breast cancer)) was 1.32 nM and the IC50 (ZR-75-1 (breast cancer)) was 1.32 nM. For the same compound, the IC50 (SKOV-3 (ovarian cancer)) was 7.08 nM and the IC50 [1] was 3.8 nM.

With CC[C@@]1(O)C(=O)OCc2c1cc1n(c2=O)Cc2c-1nc1cc(F)c(C)cc1c2CNC(=O)NCc1ccc(N)cc1 [Compound 134, (S)-1-(4-aminobenzyl)-3-((4-ethyl-8-fluoro-4-hydroxy-9-methyl-3,14-dioxo-3,4,12,14-tetrahydro-1H-pyrano[3′,4′:6,7]indolizino[1,2-b]quinolin-11-yl)methyl)urea] the IC50 (Calu-3 (lung cancer); 4 d incubation) was 24.5 nM, the IC50 (SK-BR-3 (breast cancer); 4 d incubation) was 9.55 nM and the IC50 (ZR-75-1 (breast cancer); 5 d incubation) was 12 nM. For the same compound, the IC50 (SKOV-3 (ovarian cancer); 4 d incubation) was 77.6 nM and the IC50 ([1]; 4 d incubation) was 11.5 nM.

CC[C@@]1(O)C(=O)OCc2c1cc1n(c2=O)Cc2c-1nc1cc(F)c(N)cc1c2CNS(C)(=O)=O [Compound 146, (S)—N-((9-amino-4-ethyl-8-fluoro-4-hydroxy-3,14-dioxo-3,4,12,14-tetrahydro-1H-pyrano[3′,4′:6,7]indolizino[1,2-b]quinolin-11-yl)methyl)methanesulfonamide] was tested, and the IC50 (Calu-3 (lung cancer); 4 d incubation) was 4.37 nM, the IC50 (SK-BR-3 (breast cancer); 4 d incubation) was 1.74 nM and the IC50 (ZR-75-1 (breast cancer); 5 d incubation) was 6.03 nM. The IC50 (SKOV-3 (ovarian cancer); 4 d incubation) was 11.2 nM and the IC50 ([1]; 4 d incubation) was 4.37 nM.

With CC[C@@]1(O)C(=O)OCc2c1cc1n(c2=O)Cc2c-1nc1cc(F)c(C)cc1c2CNC(=O)OCCO [Compound 139, 2-hydroxyethyl (S)-((4-ethyl-8-fluoro-4-hydroxy-9-methyl-3,14-dioxo-3,4,12,14-tetrahydro-1H-pyrano[3′,4′:6,7]indolizino[1,2-b]quinolin-11-yl)methyl)carbamate] the IC50 (Calu-3 (lung cancer); 4 d incubation) was 7.08 nM, the IC50 (SK-BR-3 (breast cancer); 4 d incubation) was 1.2 nM and the IC50 (ZR-75-1 (breast cancer); 5 d incubation) was 1.07 nM. For the same compound, the IC50 (SKOV-3 (ovarian cancer); 4 d incubation) was 5.01 nM and the IC50 ([1]; 4 d incubation) was 1.51 nM.

In the case of CC[C@@]1(O)C(=O)OCc2c1cc1n(c2=O)Cc2c-1nc1cc(F)c(C)cc1c2CN1CCN(C(=O)OC(C)(C)C)CC1 [Compound 111, tert-butyl (S)-4-((4-ethyl-8-fluoro-4-hydroxy-9-methyl-3,14-dioxo-3,4,12,14-tetrahydro-1H-pyrano[3′,4′:6,7]indolizino[1,2-b]quinolin-11-yl)methyl)piperazine-1-carboxylate], the IC50 (Calu-3 (lung cancer); 4 d incubation) is reported as 19.5 nM, the IC50 (SK-BR-3 (breast cancer); 4 d incubation) is reported as 8.51 nM and the IC50 (ZR-75-1 (breast cancer); 5 d incubation) is reported as 9.12 nM. The IC50 (SKOV-3 (ovarian cancer); 4 d incubation) was 16.6 nM and the IC50 ([1]; 4 d incubation) was 28.8 nM.

In the case of CC[C@@]1(O)C(=O)OCc2c1cc1n(c2=O)Cc2c-1nc1cc(F)c(N)cc1c2CN1CCOCC1 [Compound 142, (S)-9-amino-4-ethyl-8-fluoro-4-hydroxy-11-(morpholinomethyl)-1,12-dihydro-14H-pyrano[3′,4′:6,7]indolizino[1,2-b]quinoline-3,14(4H)-dione], the IC50 (Calu-3 (lung cancer); 4 d incubation) is reported as 1.29 nM, the IC50 (SK-BR-3 (breast cancer); 4 d incubation) is reported as 0.631 nM and the IC50 (ZR-75-1 (breast cancer); 5 d incubation) is reported as 0.759 nM. It also gave an IC50 (SKOV-3 (ovarian cancer); 4 d incubation) of 1.29 nM and an IC50 ([1]; 4 d incubation) of 1.29 nM.

Compound CC[C@@]1(O)C(=O)OCc2c1cc1n(c2=O)Cc2c-1nc1cc(F)c(N)cc1c2CO [Compound 141, (S)-9-amino-4-ethyl-8-fluoro-4-hydroxy-11-(hydroxymethyl)-1,12-dihydro-14H-pyrano[3′,4′:6,7]indolizino[1,2-b]quinoline-3,14(4H)-dione] has an IC50 (Calu-3 (lung cancer); 4 d incubation) of 1.02 nM, an IC50 (SK-BR-3 (breast cancer); 4 d incubation) of 0.347 nM and an IC50 (ZR-75-1 (breast cancer); 5 d incubation) of 0.309 nM. The IC50 (SKOV-3 (ovarian cancer); 4 d incubation) was 2.82 nM and the IC50 ([1]; 4 d incubation) was 1.45 nM.

With CC[C@@]1(O)C(=O)OCc2c1cc1n(c2=O)Cc2c-1nc1cc(F)c(OC)cc1c2CN1CCN(c2ccc(N)cc2)CC1 [Compound 109, (S)-11-((4-(4-aminophenyl)piperazin-1-yl)methyl)-4-ethyl-8-fluoro-4-hydroxy-9-methoxy-1,12-dihydro-14H-pyrano[3′,4′:6,7]indolizino[1,2-b]quinoline-3,14(4H)-dione] the IC50 (SK-BR-3 (breast cancer); 4 d incubation) was 5.75 nM, the IC50 (ZR-75-1 (breast cancer); 5 d incubation) was 5.01 nM and the IC50 (SKOV-3 (ovarian cancer); 4 d incubation) was 7.08 nM. For the same compound, the IC50 ([1]; 4 d incubation) was 8.13 nM.

Work on CC[C@@]1(O)C(=O)OCc2c1cc1n(c2=O)Cc2c-1nc1cc(F)c(OC)cc1c2CNS(=O)(=O)c1ccc(N)cc1 [Compound 128, (S)-4-amino-N-((4-ethyl-8-fluoro-4-hydroxy-9-methoxy-3,14-dioxo-3,4,12,14-tetrahydro-1H-pyrano[3′,4′:6,7]indolizino[1,2-b]quinolin-11-yl)methyl)benzenesulfonamide] yielded an IC50 (SK-BR-3 (breast cancer)) of 5.25 nM, an IC50 (ZR-75-1 (breast cancer)) of 4.27 nM and an IC50 (SKOV-3 (ovarian cancer)) of 18.2 nM. For the same compound, the IC50 [1] was 8.32 nM.

In the case of CC[C@@]1(O)C(=O)OCc2c1cc1n(c2=O)Cc2c-1nc1cc(F)c(OC)cc1c2CN1CCOCC1 [Compound 101, (S)-4-ethyl-8-fluoro-4-hydroxy-9-methoxy-11-(morpholinomethyl)-1,12-dihydro-14H-pyrano[3′,4′:6,7]indolizino[1,2-b]quinoline-3,14(4H)-dione], the IC50 (SK-BR-3 (breast cancer); 4 d incubation) is reported as 1.07 nM, the IC50 (ZR-75-1 (breast cancer); 5 d incubation) is reported as 1.07 nM and the IC50 (SKOV-3 (ovarian cancer); 4 d incubation) is reported as 1.58 nM. It also gave an IC50 ([1]; 4 d incubation) of 2.57 nM.

CC[C@@]1(O)C(=O)OCc2c1cc1n(c2=O)Cc2c-1nc1cc(F)c(N)cc1c2CNS(=O)(=O)CCO [Compound 150, (S)—N-((9-amino-4-ethyl-8-fluoro-4-hydroxy-3,14-dioxo-3,4,12,14-tetrahydro-1H-pyrano[3′,4′:6,7]indolizino[1,2-b]quinolin-11-yl)methyl)-2-hydroxyethane-1-sulfonamide] showed an IC50 (SK-BR-3 (breast cancer); 4 d incubation) of 7.94 nM, an IC50 (ZR-75-1 (breast cancer); 5 d incubation) of 6.46 nM and an IC50 (SKOV-3 (ovarian cancer); 4 d incubation) of 63.1 nM.

CC[C@@]1(O)C(=O)OCc2c1cc1n(c2=O)Cc2c-1nc1cc(F)c(C)cc1c2CN1CCN(S(=O)(=O)c2ccccc2)CC1 [Compound 102, (S)-4-ethyl-8-fluoro-4-hydroxy-9-methyl-11-((4-(phenylsulfonyl)piperazin-1-yl)methyl)-1,12-dihydro-14H-pyrano[3′,4′:6,7]indolizino[1,2-b]quinoline-3,14(4H)-dione] showed an IC50 (SK-BR-3 (breast cancer); 4 d incubation) of 0.933 nM, an IC50 (ZR-75-1 (breast cancer); 5 d incubation) of 0.794 nM and an IC50 (SKOV-3 (ovarian cancer); 4 d incubation) of 2.14 nM. The IC50 ([1]; 4 d incubation) was 2.34 nM.
